From ChEMBL document CHEMBL3988442, “University of Dundee, Small-Polar-MMV Screening Library” (2021)

Biological target: ClpP1P2 (Mycobacterium tuberculosis (strain ATCC 25618 / H37Rv), UniProt P9WPC3+P9WPC5)
Experiment: in vitro assay to detect presence of AMC directly proportional to the activity of ClpP1P2. GHDDI collaboration.
Type: functional

Chain of ClpP1P2 (P9WPC5 whole entry): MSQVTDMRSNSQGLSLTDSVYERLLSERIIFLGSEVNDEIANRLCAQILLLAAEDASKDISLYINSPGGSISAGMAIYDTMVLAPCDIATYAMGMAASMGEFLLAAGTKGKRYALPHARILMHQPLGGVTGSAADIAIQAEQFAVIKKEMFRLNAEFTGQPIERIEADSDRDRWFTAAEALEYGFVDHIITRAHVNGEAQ
Chain of ClpP1P2 (P9WPC3 whole entry): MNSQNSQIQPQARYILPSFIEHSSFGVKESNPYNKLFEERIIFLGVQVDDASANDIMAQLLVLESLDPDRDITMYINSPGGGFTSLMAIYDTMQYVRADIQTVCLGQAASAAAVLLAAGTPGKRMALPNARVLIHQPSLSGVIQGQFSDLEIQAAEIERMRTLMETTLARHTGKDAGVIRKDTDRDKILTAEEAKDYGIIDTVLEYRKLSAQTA

Structure (SMILES) | IC50 [µM]
O=C(CCc1ccc(-c2ccccc2)[nH]1)N1CCCC(n2ccnc2)C1 (centres undefined) | > 100
CNc1cncc(C2CCCN2C(=O)CCn2ccnc2)n1 (centres undefined) | > 100
Cc1ccc2cc(CN(C)Cc3ccncn3)c(=O)[nH]c2c1 | > 100
c1ccc(O[C@H]2C[C@@H]3CN(Cc4cnccn4)C[C@@H]3C2)cc1 | > 100
CC1CN(CC(=O)NCc2ccccn2)CCN1Cc1nccn1C (centres undefined) | > 100
CCN1CCc2c(sc3c2C(=O)NC(/C=C\c2ccccc2)N3)C1 (centres undefined) | > 100
COc1ccccc1CNc1ncnc2c1NC(=O)CN2 | > 100
CCOCc1ccc(CNc2cncc(-n3cccn3)n2)cc1 | > 100
COc1ccccc1-c1nc(C(=O)N2CCOCC2)n2ccncc12 | > 100
Cc1n[nH]c(=O)c2c(NC(=O)CN3CCC(O)CC3)oc(C)c12 | > 100
O=C1C(Nc2ccc3nccnc3n2)CCN1c1ccccc1F (centres undefined) | > 100
Cc1ccc2nc(CNc3ccccc3C(=O)NC3CC3)cn2c1 | > 100
CN(C)c1ncc(C2Nc3cc(Cl)ccc3C3=NCCCN32)cn1 (centres undefined) | > 100
CC(Nc1ncnc2c1NC(=O)CN2)c1ccccn1 (centres undefined) | > 100
CNc1cncc(C2CCCN2C(=O)Cn2ccnc2C)n1 (centres undefined) | > 100
COCCN1CCc2cc(C(=O)NC(C)C)c(NCC3CC3)nc2CC1 | > 100
Cn1cc(-c2nc(CNCCn3cccn3)cs2)cn1 | > 100
Cc1ccc(NC2CCN(C(=O)CCc3ccncc3)CC2)nn1 | > 100
CCOC1CCN(C(=O)NCCc2ccn(-c3ccccc3)n2)CC1 | > 100
N#Cc1cccc(OCCN2CCNC(=O)C2c2cccs2)c1 (centres undefined) | > 100
CNC(=O)c1cc2c(nc1NC(C)C)CCN(C(=O)NC(C)C)CC2 | > 100
O=C1CNc2ncnc(NCc3cccs3)c2N1 | > 100
CNC(=O)c1cc2c(nc1NCC(C)C)CCN(CCOC)CC2 | > 100
CCc1ncc2c(n1)CN(C(C)C(=O)Nc1ccc(Cl)cn1)CC2 (centres undefined) | > 100
O=C(N1CCCC(n2cncn2)C1)C1(c2ccc(Cl)cc2)CCC1 (centres undefined) | > 100

Structure (SMILES) | IC50 [µM]
COCCn1cnc(-c2cc(C(=O)NC(C)C)c3ccccn23)c1 | > 100
CCSCCN1CCCN(S(C)(=O)=O)CC1 | > 100
CNc1cc(C(=O)NCCC2=CSC3=NCCCN23)ccn1 | > 100
CC(COCC(F)(F)F)NC(=O)c1ccc(-c2ccco2)[nH]c1=O (centres undefined) | > 100
Cc1cc(C)n(-c2cncc(NCCNC(=O)C3CCCC3)n2)n1 | > 100
COCC(=O)N1CCC(c2cc3nc(C)cc(C(F)(F)F)n3n2)CC1 | > 100
CCc1ncc2c(n1)CN(Cc1nnc(Cc3ccccc3)o1)CC2 | > 100
Cc1nn(C)c(C)c1-c1cc(-c2cc(CC(=O)O)cs2)nc(N)c1C#N | > 100
N#Cc1cccnc1N1CCC(C2CCCCCN2C(=O)C2CC2)CC1 (centres undefined) | > 100
O=C(NCCCO)c1cc(-c2cc[nH]n2)n2ccccc12 | > 100
CCc1nc(C2CCCN(C(=O)CC3CCOCC3)C2)no1 (centres undefined) | > 100
O=C(c1cncc(NCC2COc3ccccc3C2)n1)N1CCOCC1 (centres undefined) | > 100
COc1cc2nc(NCCNS(C)(=O)=O)cc(C)c2cc1OC | > 100
O=C(NC1CCCC1)c1cnn2c(-c3ccco3)ccnc12 | > 100
Cc1cccc2c1C(=O)NC1(CCOCC1)N2 | > 100
CC(C)N(CCC#N)C(=O)c1cnc(-c2ccc3c(c2)OCO3)s1 | > 100
O=C(Nc1cc(CCC2CCN(CCO)CC2)ccn1)c1ccccn1 | > 100
CNC(=O)c1cc(C)ccc1NCc1cn2cc(C)ccc2n1 | > 100
COCc1cccc(CNCc2c(C)nn(C)c2N2CCOCC2)c1 | > 100
O=C(O)C1(O)CCN(c2ccc3cccc(Cl)c3n2)CC1 | > 100
O=C(c1c2c(N3CCCC3)ncnc2n2ccccc12)N1CCCC1 | > 100
CCn1nc2c(cc1=O)CN(Cc1nc(C)c(C)o1)CC2 | > 100
Cc1nc(CN2CCCN(C(=O)c3sccc3C#N)CC2)cs1 | > 100
O=C(c1cc(-c2ccco2)nc2c(Cl)cccc12)N1CC[C@H]2CNC[C@H]21 | > 100
CNC(=O)c1cc2c(nc1NCC(C)C)CCN(S(=O)(=O)N(C)C)CC2 | > 100

Structure (SMILES) | IC50 [µM]
CCOC1CCN(C(=O)CN(C)c2cnccn2)CC1 | > 100
CC(Cn1cccn1)NC(=O)N1CCN(Cc2ccsc2)CC1 (centres undefined) | > 100
Nc1cccc(-c2cccc3ccnn23)n1 | > 100
Cc1cc(C)c2cc(CNCC3CCCO3)c3nn(C)c(=O)n3c2c1 (centres undefined) | > 100
O=C(NC1CCC1)c1c2c(N3CCCC3)ncnc2n2ccccc12 | > 100
Cc1cccc(CNc2cncc(-n3cccn3)n2)c1 | > 100
Cn1cc(-c2ncc3c(c2C(=O)O)CCN(Cc2ccccn2)C3)cn1 | > 100
c1cncc(CN2CCC(c3ccc4c(c3)OCO4)CC2)c1 | > 100
CCOC(=O)Cn1nnnc1-c1ccccc1 | > 100
CCCn1nc2c(cc1=O)CN(CC(=O)N(C)c1nccs1)CC2 | > 100
CCC[C@H]1CN(c2cncc(C(=O)N3CCCCC3)n2)C[C@@H]1N(C)C | > 100
Cn1cc(Cl)cc1C(=O)N1CCCN(Cc2ccccc2)CC1 | > 100
Cc1n[nH]c(C)c1-c1cc(-c2cccc(O)c2)nc(N)c1C#N | > 100
Cc1nc(C2CCCN2CC(=O)Nc2c(C)n[nH]c2C)no1 (centres undefined) | > 100
N#Cc1ccnc(N2CCC(c3nccn3Cc3cscn3)CC2)c1 | > 100
CC(C)SCCNC(=O)c1cccc2ccnn12 | > 100
COc1cccc(-c2cc(NCCO)nc3[nH]ccc23)n1 | > 100
OCCNc1nc(NCc2cccnc2)nc2nccnc12 | > 100
COCCNC(=O)c1nc(-c2cn(C)cn2)n2ccccc12 | > 100
CN(Cc1ccsc1)C(=O)Nc1ccc(N(C)C)nc1 | > 100
CCC(=O)NC1CCCN(c2cncc(OCc3ccccc3)n2)C1 (centres undefined) | > 100
CC(C)n1cnc(-c2nc(C(=O)NC3CC3)c3ccccn23)c1 | > 100
CCN(Cc1nc2c(cnn2C)c(=O)[nH]1)Cc1cccs1 | > 100
Cc1nn(C)c(C)c1C1CCCN1C(=O)c1ccnc(N(C)C)c1 (centres undefined) | > 100
CNC(=O)c1cnn2c(C3CCCN3)ccnc12 (centres undefined) | > 100

Structure (SMILES) | IC50 [µM]
CC(C)n1c2ccccc2c2c1cc(C(=O)NCCO)n2C(=O)N(C)C | > 100
O=C1CC(Nc2ccc3nccnc3n2)CN1c1ccccc1 (centres undefined) | > 100
O=C(CN1CCC2(CC1)NC(=O)c1cc(Br)ccc1N2)NC1CC1 | > 100
CN(Cc1nnc(-c2ccco2)o1)C1CCCN(c2cccnn2)C1 (centres undefined) | > 100
CNc1cncc(C2CCN(C(=O)c3coc(C)n3)CC2)n1 | > 100
Fc1ccccc1-c1cc(N2[C@@H]3CC[C@H]2CNC3)n2nccc2n1 | > 100
c1ccc2nc(N3CCOC(Cn4cccn4)C3)cnc2c1 (centres undefined) | > 100
O=C1NC2(CCN(C(=O)CN3CCOCC3)CC2)Nc2ccc(Cl)cc21 | > 100
O=C1CN(Cc2ccc3ccccc3n2)CCN1C1CCCC1 | > 100
CC(=O)N1CCC(c2cc(C(F)(F)F)n3ccnc3n2)CC1 | > 100
c1coc(-c2noc(CN3CCc4cncnc4C3)n2)c1 | > 100
Cc1nn2c(N3CCCC(C(N)=O)C3)cc(-c3ccccc3)nc2c1C (centres undefined) | > 100
Cc1cccc2c1OCCC2NCc1c(C)nn(C)c1N(C)C (centres undefined) | > 100
NC(=O)CC1CCCN(c2cncc(OCc3ccccc3)n2)C1 (centres undefined) | > 100
O=C(NCCOC1CCCC1)c1ccc(-c2ccco2)[nH]c1=O | > 100
CNc1cnc(CC2COCCN(Cc3ccccc3)C2)cn1 (centres undefined) | > 100
CN(C(=O)CCc1nc(C2CC2)no1)c1cc(C#N)c2ccccc2n1 | > 100
c1cnnc(N2CCCC(NCc3nnc(-c4ccco4)o3)C2)c1 (centres undefined) | > 100
O=C(O)C1CN(c2cncc(Cc3ccccc3F)n2)C1 | > 100
CCOc1cc(/C=C/c2ncc(C(=O)O)s2)cc(Br)c1OC | > 100
Cc1ccoc1C(=O)NC1CCN(C(=O)Nc2ccccn2)CC1 | > 100
Cc1cc(C)n(-c2ccc3nnc(C)n3n2)n1 | > 100
Cc1ccccc1OCCN1CCn2c(C)nnc2C1 | > 100
Cc1ccc(C#N)c(N2CCC3(CCCN(C4CCOCC4)C3=O)C2)n1 (centres undefined) | > 100
Cc1nc(-c2nc(C(=O)NC3CC3)c3ccccn23)cn1C(C)C | > 100

Structure (SMILES) | IC50 [µM]
COc1ccc2[nH]c(=O)c(CN(C)CCN3CCCC3)cc2c1 | > 100
c1cc(CN2CCC(c3ccnc4nccn34)C2)ccn1 (centres undefined) | > 100
Cc1nnc(C2Cc3ccccc3CN2Cc2c(C)noc2C)o1 (centres undefined) | > 100
COc1ccc2nc(O)c(CN(C)Cc3ncc[nH]3)cc2c1 | > 100
N#Cc1cccnc1N1CCCN(C(=O)CCn2cncn2)CC1 | > 100
CCOC(=O)C1(Cc2cccc(OC)c2)CCN(Cc2ncc[nH]2)CC1 | > 100
COc1ccc(-c2cnc(N(C)C)nc2C2CNCCO2)cc1 (centres undefined) | > 100
COc1ccc(-c2nc(CN3CCc4cncnc4C3)no2)cc1 | > 100
CC(C)c1nn(C)c(N(C)C)c1CNCC(O)c1cccc(F)c1 (centres undefined) | > 100
CC(C)Nc1oc(-c2ccc(S(=O)(=O)N(C)C)o2)nc1C#N | > 100
Cc1cc(NCC(=O)N(C)Cc2cccs2)c(C(N)=O)cc1F | > 100
CN(Cc1noc(C2CC2)n1)C1CCN(Cc2ccccc2C#N)C1 (centres undefined) | > 100
CC(C)CNC(=O)c1cn(-c2ccccn2)c(=O)c2ccccc12 | > 100
CN(C)c1ncc(C2Nc3ccccc3C3=NCCCN32)cn1 (centres undefined) | > 100
Cc1nc(C)n(CC2CN(Cc3cccc4ccccc34)CCO2)n1 (centres undefined) | > 100
Cc1cnn(CC2CN(Cc3csc(C4CCCC4)n3)CCO2)c1 (centres undefined) | > 100
Nc1ncc(-c2ccc(Cl)cc2)c(C2CCCNC2)n1 (centres undefined) | > 100
O=C(c1nc(=O)[nH]c2ccccc12)N1CCCC(CC2CC2)(C(=O)O)C1 (centres undefined) | > 100
Cc1csc2ncc(-c3ccnc(N4CCCC[C@@H]4CO)n3)c(=O)n12 | > 100
COCCn1cnc(-c2nc(C(=O)N3CCOCC3)c3ccccn23)c1 | > 100
CN1C(=O)c2cccc(NC(=O)c3ccc4c(c3)OCCO4)c2C1=O | > 100
CC(C)n1cnc(-c2nc(C(=O)N3CCN(C)CC3)c3ccccn23)c1 | > 100
Fc1cccc(CNc2cncc(-n3cccn3)n2)c1 | > 100
Cc1nc(CN2CCOC(Cn3cccn3)C2)nc2ccccc12 (centres undefined) | > 100
